The source of these data is article PMC9105976, “A Novel β-Hairpin Peptide Z-d14CFR Enhances Multidrug-Resistant Bacterial Clearance in a Murine Model of Mastitis” (International Journal of Molecular Sciences, 2022).

Positions of bridges follow the written chain, without caps; N, C: chain ends. Residues, ends and D or L forms follow the SMILES beside them.

Data set [1] can be described thus: Retention time of peptide in HPLC (hydrophobicity). Type of data set: physicochemical. Conditions: used as measure of hydrophobicity (order Z-d14CR > Z-d14CF > Z-d13 > Z-d14CFR > Z-d14C); column and gradient not given.
Data set [2] concerns Escherichia coli CAU 201919. Description: MIC/MBC, microdilution broth method. Format: cell-based. Conditions: Escherichia coli CAU 201919 (MDR isolate). How it is done: (§1) The MIC of peptides against bacteria was carried out by the microdilution broth method. The bacterial culture (OD 600 = 0.6) was diluted in 10 mM PBS to 1 × 10^6 CFU/mL. The bacterial suspension (100 μL) was added to 96-well plates, and the same volume of peptides, ampicillin or gentamicin (concentrations ranging from 0.001 to 2 mg/mL) were then added to the same 96-well plates, respectively.
(Broth dilution looks for growth in wells or tubes with falling amounts of substance.)

For data set [3], the system named is Proteus vulgaris CVCC1971. Description: MIC/MBC, microdilution broth method. Type of data set: cell-based. Conditions: Proteus vulgaris CVCC1971. The procedure:
as §1

Data set [4] relates to Klebsiella pneumoniae CAU202084. Description: MIC/MBC, microdilution broth method. Format: cell-based. Conditions: Klebsiella pneumoniae CAU202084 (MDR isolate). The procedure:
as §1

Data set [5] has as its system Escherichia coli CVCC1450. Description: MIC/MBC, microdilution broth method. Type of data set: cell-based. As to conditions: Escherichia coli CVCC1450. How it is done:
as §1

Data set [6] relates to Streptococcus suis CVCC3307. Description: MIC/MBC, microdilution broth method. Type of data set: cell-based. As to conditions: Streptococcus suis CVCC3307. How it is done:
as §1

Data set [7] deals with Staphylococcus aureus ATCC29213. Description: MIC/MBC, microdilution broth method. Conditions: Staphylococcus aureus ATCC29213. Type of data set: cell-based. The procedure:
as §1

Data set [8] deals with Salmonella typhimurium ATCC14028. Description: MIC/MBC, microdilution broth method. Type of data set: cell-based. As to conditions: Salmonella typhimurium ATCC14028. How it is done:
as §1

Data set [9] deals with Staphylococcus haemolyticus CAU202078. Description: MIC/MBC, microdilution broth method. Type of data set: cell-based. Conditions: Staphylococcus haemolyticus CAU202078 (MDR isolate). The procedure: as §1
The next data set deals with MRSA ATCC33591. Description: MIC/MBC, microdilution broth method. Format: cell-based, S. aureus. The procedure: as §1
Where [10] appears, read: 1 × 10^6 CFU/mL, 18 h at 37 °C, NA = no antimicrobial activity at 1 mg/mL.
The mark [11] stands for this setting: kills 99.9% bacteria, NA = no activity at 1 mg/mL.

As to `CC(C)[C@@H]1NC(=O)[C@@H]2CSSC[C@H](NC(=O)[C@H](Cc3ccc(O)cc3)NC(=O)[C@@H](NC(=O)CNC(=O)[C@@H](N)CCCNC(=N)N)CSSC[C@@H](C(=O)N[C@@H](CCCNC(=N)N)C(N)=O)NC1=O)C(=O)N[C@@H](CC(N)=O)C(=O)N[C@@H](CO)C(=O)N[C@@H](CCCCN)C(=O)N[C@@H](CO)C(=O)N[C@@H](C(C)C)C(=O)N2` [Z-d14C] (H-RGCYCNSKSVCVCR-NH2; disulfide 3-13, 5-11; N-terminus assumed), in data set [1], the “RT, retention time of peptide in HPLC” value amounted to 7.809 min. The MIC result in [2] (setting [10]), in data set [3] (setting [10]), in data set [4] (setting [10]), in data set [5] (setting [10]), in [6] (setting [10]) and in data set [7] (setting [10]) was “NA (NA) (No antimicrobial activity at 1 mg/mL)” each time. In addition, the MIC entry in data set [8] (setting [10]) was “NA (NA) (No antimicrobial activity at 1 mg/mL)”; in [9] (setting [10]), “NA (NA) (No antimicrobial activity at 1 mg/mL)”; with MRSA ATCC33591 (MRSA (methicillin-resistant S. aureus) ATCC33591, 1 × 10^6 CFU/mL, 18 h at 37 °C, NA = no antimicrobial activity at 1 mg/mL), “NA (NA) (No antimicrobial activity at 1 mg/mL)”. The MBC entry in data set [2] (setting [11]) is “NA (NA) (No antimicrobial activity at 1 mg/mL)”; in [3] (setting [11]) it was “NA (NA) (No antimicrobial activity at 1 mg/mL)”; in data set [4] (setting [11]), “NA (NA) (No antimicrobial activity at 1 mg/mL)”; in data set [5] (minimum concentration which kills 99.9% bacteria, NA = no activity at 1 mg/mL) it was “NA (NA) (No antimicrobial activity at 1 mg/mL)”; in data set [6] (setting [11]), “NA (NA) (No antimicrobial activity at 1 mg/mL)”; in data set [7] (setting [11]) it was “NA (NA) (No antimicrobial activity at 1 mg/mL)”. The MBC result is “NA (NA) (No antimicrobial activity at 1 mg/mL)” in [8] (setting [11]); “NA (NA) (No antimicrobial activity at 1 mg/mL)” in data set [9] (setting [11]); “NA (NA) (No antimicrobial activity at 1 mg/mL)” with MRSA ATCC33591 (MRSA ATCC33591, kills 99.9% bacteria, NA = no activity at 1 mg/mL).
